± gives the uncertainty stated by the source.
Experiment: xn = mol fraction of the nth substance listed
Conditions: 100 kPa

`Cc1cccc2ccccc12` + CC(CC(C)(C)C)CC(C)(C)CC(C)(C)C gave a viscosity (293.15 K, x1 = 0.125) of 3.46 ± 0.22 mPa·s, a viscosity (293.15 K, x1 = 0.25) of 3.24 ± 0.21 mPa·s and a viscosity (293.15 K, x1 = 0.375) of 3.09 ± 0.2 mPa·s. The viscosity (293.15 K, x1 = 0.5) was 2.97 ± 0.19 mPa·s, the viscosity (293.15 K, x1 = 0.625) was 2.88 ± 0.19 mPa·s and the viscosity (293.15 K, x1 = 0.75) was 2.9 ± 0.19 mPa·s. For the same molecule, the viscosity (293.15 K, x1 = 0.875) was 3.02 ± 0.2 mPa·s, the viscosity (303.15 K, x1 = 0.125) was 2.75 ± 0.18 mPa·s and the viscosity (303.15 K, x1 = 0.25) was 2.61 ± 0.17 mPa·s. The viscosity (303.15 K, x1 = 0.375) was 2.47 ± 0.16 mPa·s, the viscosity (303.15 K, x1 = 0.5) was 2.38 ± 0.15 mPa·s and the viscosity (303.15 K, x1 = 0.625) was 2.32 ± 0.15 mPa·s. For the same molecule, the viscosity (303.15 K, x1 = 0.75) was 2.33 ± 0.15 mPa·s, the viscosity (303.15 K, x1 = 0.875) was 2.4 ± 0.16 mPa·s and the viscosity (313.15 K, x1 = 0.125) was 2.29 ± 0.15 mPa·s. For the same molecule, the viscosity (313.15 K, x1 = 0.25) was 2.14 ± 0.14 mPa·s, the viscosity (313.15 K, x1 = 0.375) was 2.02 ± 0.13 mPa·s and the viscosity (313.15 K, x1 = 0.5) was 1.95 ± 0.13 mPa·s. It also gave a viscosity (313.15 K, x1 = 0.625) of 1.9 ± 0.12 mPa·s, a viscosity (313.15 K, x1 = 0.75) of 1.91 ± 0.12 mPa·s and a viscosity (313.15 K, x1 = 0.875) of 1.97 ± 0.13 mPa·s. It also gave a viscosity (323.15 K, x1 = 0.125) of 1.86 ± 0.12 mPa·s, a viscosity (323.15 K, x1 = 0.25) of 1.76 ± 0.11 mPa·s and a viscosity (323.15 K, x1 = 0.375) of 1.7 ± 0.11 mPa·s. For the same molecule, the viscosity (323.15 K, x1 = 0.5) was 1.64 ± 0.1 mPa·s, the viscosity (323.15 K, x1 = 0.625) was 1.6 ± 0.1 mPa·s and the viscosity (323.15 K, x1 = 0.75) was 1.61 ± 0.1 mPa·s. The viscosity (323.15 K, x1 = 0.875) was 1.64 ± 0.1 mPa·s.

Molecule `CCCCCCCCCO` + CCC(C)=O has a viscosity (293.15 K, x2 = 0.0834) of 8.68 ± 0.87 mPa·s, a viscosity (293.15 K, x2 = 0.1589) of 6.91 ± 0.69 mPa·s and a viscosity (293.15 K, x2 = 0.2407) of 5.59 ± 0.56 mPa·s. It also gave a viscosity (293.15 K, x2 = 0.3508) of 4.29 ± 0.43 mPa·s, a viscosity (293.15 K, x2 = 0.4403) of 3.39 ± 0.34 mPa·s and a viscosity (293.15 K, x2 = 0.5589) of 2.38 ± 0.24 mPa·s. It also gave a viscosity (293.15 K, x2 = 0.6502) of 1.83 ± 0.18 mPa·s, a viscosity (293.15 K, x2 = 0.7393) of 1.33 ± 0.13 mPa·s and a viscosity (293.15 K, x2 = 0.8501) of 0.78 ± 0.08 mPa·s. It also gave a viscosity (293.15 K, x2 = 0.9393) of 0.56 ± 0.06 mPa·s, a viscosity (303.15 K, x2 = 0.0834) of 6.38 ± 0.64 mPa·s and a viscosity (303.15 K, x2 = 0.1589) of 5.06 ± 0.51 mPa·s. The viscosity (303.15 K, x2 = 0.2407) was 3.89 ± 0.39 mPa·s, the viscosity (303.15 K, x2 = 0.3508) was 2.91 ± 0.29 mPa·s and the viscosity (303.15 K, x2 = 0.4403) was 2.25 ± 0.23 mPa·s. For the same molecule, the viscosity (303.15 K, x2 = 0.5589) was 1.52 ± 0.15 mPa·s, the viscosity (303.15 K, x2 = 0.6502) was 0.98 ± 0.1 mPa·s and the viscosity (303.15 K, x2 = 0.7393) was 0.76 ± 0.08 mPa·s. It also gave a viscosity (303.15 K, x2 = 0.8501) of 0.53 ± 0.05 mPa·s, a viscosity (303.15 K, x2 = 0.9393) of 0.46 ± 0.05 mPa·s and a viscosity (313.15 K, x2 = 0.0834) of 4.39 ± 0.44 mPa·s. The viscosity (313.15 K, x2 = 0.1589) was 3.52 ± 0.35 mPa·s, the viscosity (313.15 K, x2 = 0.2407) was 2.8 ± 0.3 mPa·s and the viscosity (313.15 K, x2 = 0.3508) was 2.07 ± 0.21 mPa·s. For the same molecule, the viscosity (313.15 K, x2 = 0.4403) was 1.61 ± 0.16 mPa·s, the viscosity (313.15 K, x2 = 0.5589) was 1.21 ± 0.12 mPa·s and the viscosity (313.15 K, x2 = 0.6502) was 0.98 ± 0.1 mPa·s. For the same molecule, the viscosity (313.15 K, x2 = 0.7393) was 0.78 ± 0.08 mPa·s, the viscosity (313.15 K, x2 = 0.8501) was 0.55 ± 0.06 mPa·s and the viscosity (313.15 K, x2 = 0.9393) was 0.42 ± 0.04 mPa·s. The viscosity (323.15 K, x2 = 0.0834) was 3.27 ± 0.33 mPa·s, the viscosity (323.15 K, x2 = 0.1589) was 2.67 ± 0.27 mPa·s and the viscosity (323.15 K, x2 = 0.2407) was 2.14 ± 0.21 mPa·s. For the same molecule, the viscosity (323.15 K, x2 = 0.3508) was 1.56 ± 0.16 mPa·s, the viscosity (323.15 K, x2 = 0.4403) was 1.25 ± 0.13 mPa·s and the viscosity (323.15 K, x2 = 0.5589) was 0.92 ± 0.09 mPa·s. It also gave a viscosity (323.15 K, x2 = 0.6502) of 0.72 ± 0.07 mPa·s, a viscosity (323.15 K, x2 = 0.7393) of 0.59 ± 0.06 mPa·s and a viscosity (323.15 K, x2 = 0.8501) of 0.47 ± 0.05 mPa·s. It also gave a viscosity (323.15 K, x2 = 0.9393) of 0.38 ± 0.04 mPa·s.
